The conditions of data set [1]: published PK data, cited from earlier work.
Data set [2] deals with JCV strain Mad-4. Kind of data set: JCV strain Mad-4 infection of SVG-A cells. The format is cell-based, JC polyomavirus (JCV). The conditions noted are these: 5 independent experiments.
In data set [3] the test system is JCV DNA replication. As to the kind of experiment: JCV DNA replication by qPCR (TAg probe) in SVG-A cells. The following applies: 3 days after infection, compared with infection rate inhibition. The format is cell-based, JC polyomavirus (JCV). (In qPCR the cycle at which signal appears reflects the starting amount.)
Data set [4] relates to Mad1/SVEΔ JCV. As to the kind of experiment: JCV infection of primary human fetal astrocytes. The format is cell-based, JC polyomavirus (JCV). On the procedure:
CO2 incubator. […] The culture media is used for the infection.
FIG. 5A illustrates SVG-A cells with Mad1/SVEΔ JCV (n=12) virus. FIG. 5B illustrates primary human fetal astrocytes with Mad1/SVEΔ JCV.
Since during PML many cells are already infected with JC virus, in some embodiments a drug candidate for treatment of PML may be selected as one that can inhibit viral life cycle in already infected cells. […] In FIG. 7 various concentration of the drug were added to the culture of primary human fetal astrocytes infected with JC virus at the same time as virus (circles; T=0), 3 hours after virus addition (squires; T=3 h), or 24 hours after (triangles; T=24 h). Ten days after infection with the virus cells were fixed and number of virally infected cells was enumerated. Results of a representative experiment out of 4 different experiments with primary astrocytes or SVG-A cells are shown.

The test system of data set [5] is JCV strain Mad1/SVEΔ. As to the kind of experiment: microbe, parasite or virus in culture. The format is cell-based, JC polyomavirus (JCV). The following applies: for inhibition at 10 µM / IC50: JC polyomavirus. On the procedure: (§1) SV40 transformed glial cells were seeded in 10% FBS media. The cells were seeded at 2000 cells per well in 75 μl of media per well. On day 2, the media was removed and replaced by 35 μl of a 1× concentrated drug aliquot combined with a 100× diluted JCV Turbo aliquot in 35 μl of 2% FBS media (JCV Turbo is a hybrid Mad-1/SVEΔ virus constructed by insertion of the regulatory region of SV40 into the regulatory region of the Mad-1 strain of JCV (Mad-1/SVE), Vacante et al., Virology 1989, 170: 353-361). The cells were incubated for an hour, after which another 65 uL aliquot of 1× concentrated drug in 2% FBS was added. On day 5 the cells were stained with DAPI (for total cell number) and with a mouse monoclonal antibody against SV40 VP1, which cross reacts with the JCV VP1 protein. […] The information is tabulated as % inhibition (as measured by the number and percentage of JCV positive cells).
(§2) JCV Infectivity Assay: SVG-A cells were seeded at 2,000 cells/well/0.075 ml of culture media in 96 flat-bottom well plate (Corning, N.Y.). The next day compounds were prepared in assay medium (2% heat-inactivated fetal bovine serum, 4 mM L-glutamine, 1×MEM). A master viral plate was prepared by mixing equal volumes of [2×] compound and [2×] diluted virus for the final 1× concentration of the compound and the virus. The plate containing cells was gently inverted and shaken to remove media. From the master plate, 0.035 ml compound/virus was added to designated wells. The cells were incubated with the compound/virus mixture for 60 minutes in a humidified 37° C. CO2 incubator. At that time final concentration of the drug in media was added to designated wells to bring the final volume up to 0.1 ml/well. The plates were incubated for an additional three days, the cells were then washed once with 1×PBS, and fixed in 2% paraformaldehyde/1×PBS for 30 minutes at room temperature. The fixative was removed and the cells were solubilized with 0.5% Triton X100 in PBS for an additional 30 minutes. Infection by Mad-1/SVEΔ virus was visualized by staining with PAB597, a monoclonal antibody against the major capsid protein VP1, the cells were incubated with 0.05 ml of PAB597 (2 μg/ml in 1×PBS) for 60 minutes at 37° C. Following a wash step with 1×PBS, primary antibody was detected with an Alexa-Fluor 488-labeled goat anti-mouse secondary antibody at 1:100 dilution in 1×PBS, cells were counterstained with DAPI at 1 μg/ml (0.05 ml/well) for 30 minutes at 37° C. Cells were washed with 1×PBS and 0.1 ml 1×PBS was added to cells. Field images of each well were acquired and analyzed using the Cellomics ArrayScan (Thermo Scientific Inc, Waltham, Mass.) using the Target Activation software. […] The cells are seeded at 4,000 cells/well/0.075 ml of culture media in 96 flat-bottom well plate (Corning). The culture media is used for the infection. The length of the infection is six to ten days (instead of the three days for SVG-A cells).
Calculations: The rate of JCV infection was calculated by normalizing the number of JCV infected cells by the total number of nucleated cells as % JCV^+ cells=((total # VP1^+ cells)/(total # DAPI^+ cells))*100%. The % of viral inhibition by a compound was calculated using a JCV infection rate instead of using total number of JCV infected cells (e.g., VP1^+ cells).

Data set [6] deals with SVG-A cells. As to the kind of experiment: Total cell number (DAPI+ events) / cytotoxicity in the JCV infectivity assay. The conditions noted are these: for inhibition at 10 µM: Homo sapiens, SVG-A, read-out: % Inhibition total Cell Number @10 uM. The protocol: as §1, §2
(§3) The primary assay employed an SVG-A cell line and JCV Mad1/SVEΔ viral strain.

The conditions of data set [7]: human, in vivo. An excerpt:
The published literature was reviewed for information on pharmacokinetics and brain distribution of these drugs in humans and in animal models. Since JC virus uncontrollably replicates in the oligodendrocytes and astrocytes of the effected individuals during PML but not all drugs are capable of crossing blood brain barrier it would be advantageous for any potential PML therapy if the drug candidate is capable of achieving efficacious concentration in the brain.

For data set [8] the following is noted: # animal data; published PK data; cited from earlier work.
Data set [9] in a line: in vitro. The following applies: human. On the procedure: as §1, §2, §3
Setting [10] is: Glial cell, read-out: % Inhibition (total #JCV+) @10 uM.
Where [11] appears, read: SVG-A, read-out: % Inhibition (% JCV+) @10 uM.

Structures can show the parent of a compound that is named as a salt. Where two headings read alike, the source gives them in different places.

Take `OC(c1cc(C(F)(F)F)nc2c(C(F)(F)F)cccc12)C1CCCCN1` (racemic) [MEFLOQUINE, [2,8-bis(trifluoromethyl)quinolin-4-yl]-piperidin-2-ylmethanol]: the Cmax – broadly, the peak of the concentration-time curve – in [1] (read-out: plasma Cmax) was 6 µM. In addition, the “inhibition of Mad4 infection of SVG-A cells, in words” value in data set [2] is listed as “the same efficacy as Mad1/SVEΔ infection”. In data set [3], the “percent of JCV DNA inhibition, in words” value is “almost overlaps the percent of infection rate inhibition”. The “inhibition of JCV infection of primary human fetal astrocytes, in words” value in [4] (compared with SVG-A cells) is “essentially the same efficacy as it inhibits viral infection in SVG-A cells”. The “inhibition of cell infection when added 3 or 24 hours post infection, in words” value in [4] (primary human fetal astrocytes, read ten days after infection) is reported as “just as effective at inhibiting cell infection as it was when added to the cells together with the virus”. For the same compound, the “anti-JCV activity in presence of cerebrospinal fluid (CSF), in words” value in data set [5] (FIG. 10) was “not inhibited by cerebrospinal fluid (CSF)”. In addition, the inhibition – broadly, the relative decrease from the control value, in per cent – at 10 µM in [5] (setting [10]) worked out at 66%; in data set [5] (setting [11]) it was 64%; in [6] it was 5%. Besides, the IC50 in data set [5] (SVG-A) turned out to be 4 µM; in data set [5] (SVG-A, read-out: IC50 (in vitro efficacious concentration)), 3.9 ± 2.1 µM. The “Inhibition of total cell numbers (DAPI+ events)” value in data set [6] (at the drug concentrations of the dose response curves) is reported as “less than 20%”. In [6] (human, 3 days), the CC50 stood at 16.1 µM. Also, the “Brain concentration, approximated” value in data set [7] was in the range of 35 to 50 µM.
Consider `Cc1cccc(Nc2ccccc2C(=O)O)c1C` [MEFENAMIC ACID], for which the “plasma Cmax” value in data set [1] was 10000 to 20000 ng/mL. In addition, in data set [8], the Brain is 0.8 µg/mL. Also, the inhibition at 10 µM in data set [5] (setting [10]) was 29%; in data set [5] (setting [11]), 29%; in data set [6] it was 0%. For the same compound, the IC50 in data set [5] (SVG-A) is 10.9 µM.
For `Cc1c(Nc2ncccc2C(=O)O)cccc1C(F)(F)F` [FLUNIXIN MEGLUMINE], the inhibition at 10 µM in data set [5] (setting [10]) was 30%; in [5] (setting [11]), 33%; in data set [6] it was -4%. This compound displayed an IC50 in data set [5] (SVG-A) of 16.6 µM. Besides, the CC50 in [9] was determined as 47.7 µM.
Turning to `COc1ccc([C@@H]2Sc3ccccc3N(CCN(C)C)C(=O)[C@@H]2OC(C)=O)cc1` [DILTIAZEM HYDROCHLORIDE], the inhibition at 10 µM in data set [5] (setting [10]) is 20%; in data set [5] (setting [11]), 24%; in [6], -4%. This compound also came in with an IC50 in data set [5] (SVG-A) of 8.5 µM. Besides, the CC50 at 3 days in data set [9] was > 40 µM.

Values taken from US9233107B2, “Compositions and methods for the treatment of progressive multifocal leukoencephalopathy (PML)” (Biogen MA Inc., priority 2007, dated 2016).
